Assay results from ChEMBL document CHEMBL3045407, “Synthesis and antimicrobial activity of pyrazolinones and pyrazoles having benzothiazole moiety” (2012).
Values after ≈ are worked out from the molar mass of the structure shown.

Experiments:
Format in all cases: functional
Candida albicans = assay: Antimicrobial activity against Candida albicans ATCC 90028 by serial plate dilution method
Aspergillus niger = assay: Antimicrobial activity against Aspergillus niger ATCC 9029 by serial plate dilution method
Escherichia coli = assay: Antimicrobial activity against Escherichia coli ATCC 25922 by serial plate dilution method
Staphylococcus aureus = assay: Antimicrobial activity against Staphylococcus aureus ATCC 25923 by serial plate dilution method

SMILES	MIC (Candida albicans) [µM]	MIC (Aspergillus niger) [µM]	MIC (Escherichia coli) [µM]	MIC (Staphylococcus aureus) [µM]
Cc1nn(-c2nc3ccc(Cl)cc3s2)c(C)c1/N=N/c1ccccc1Cl	125 (≈ 50.2 µg/mL)	125 (≈ 50.2 µg/mL)	249 (≈ 100 µg/mL)	499 (≈ 201 µg/mL)
CC1=NN(c2nc3ccc(Cl)cc3s2)C(=O)/C1=N/Nc1ccccc1O	260 (≈ 100 µg/mL)	519 (≈ 200 µg/mL)	260 (≈ 100 µg/mL)	130 (≈ 50.1 µg/mL)
CC(=O)N1CCN(c2ccc(OCC3COC(Cn4ccnc4)(c4ccc(Cl)cc4Cl)O3)cc2)CC1 (stereo unspecified) [KETOCONAZOLE]	5.88 (≈ 3.12 µg/mL)	11.8 (≈ 6.25 µg/mL)		
CC1=NN(c2nc3ccc(Cl)cc3s2)C(=O)/C1=N/Nc1ccc(C)cc1	522 (≈ 200 µg/mL)	261 (≈ 100 µg/mL)	131 (≈ 50.1 µg/mL)	65.3 (≈ 25.1 µg/mL)
CC1=NN(c2nc3ccc(Cl)cc3s2)C(=O)/C1=N/Nc1ccc(C(=O)O)cc1	242 (≈ 100 µg/mL)	484 (≈ 200 µg/mL)	242 (≈ 100 µg/mL)	121 (≈ 50.1 µg/mL)
Cc1ccc(/N=N/c2c(C)nn(-c3nc4ccc(Cl)cc4s3)c2C)cc1	131 (≈ 50.1 µg/mL)	262 (≈ 100 µg/mL)	65.6 (≈ 25.1 µg/mL)	131 (≈ 50.1 µg/mL)
CC1=NN(c2nc3ccc(Cl)cc3s2)C(=O)/C1=N/Nc1ccccc1C	522 (≈ 200 µg/mL)	261 (≈ 100 µg/mL)	261 (≈ 100 µg/mL)	131 (≈ 50.1 µg/mL)
CC1=NN(c2nc3ccc(Cl)cc3s2)C(=O)/C1=N/Nc1ccccc1Cl	248 (≈ 100 µg/mL)	248 (≈ 100 µg/mL)	124 (≈ 50.2 µg/mL)	62 (≈ 25.1 µg/mL)
Cc1nn(-c2nc3ccc(Cl)cc3s2)c(C)c1/N=N/c1ccccc1O	261 (≈ 100 µg/mL)	522 (≈ 200 µg/mL)	522 (≈ 200 µg/mL)	522 (≈ 200 µg/mL)
Cc1nn(-c2nc3ccc(Cl)cc3s2)c(C)c1/N=N/c1ccc(F)cc1	260 (≈ 100 µg/mL)	130 (≈ 50.1 µg/mL)	32.5 (≈ 12.5 µg/mL)	64.9 (≈ 25.1 µg/mL)
Cc1nn(-c2nc3ccc(Cl)cc3s2)c(C)c1/N=N/c1ccc(Br)cc1	112 (≈ 50.1 µg/mL)	56 (≈ 25 µg/mL)	112 (≈ 50.1 µg/mL)	112 (≈ 50.1 µg/mL)
Cc1ccccc1/N=N/c1c(C)nn(-c2nc3ccc(Cl)cc3s2)c1C	262 (≈ 100 µg/mL)	525 (≈ 200 µg/mL)	262 (≈ 100 µg/mL)	262 (≈ 100 µg/mL)
CC1=NN(c2nc3ccc(Cl)cc3s2)C(=O)/C1=N/Nc1ccc(Br)cc1	112 (≈ 50.1 µg/mL)	223 (≈ 100 µg/mL)	112 (≈ 50.1 µg/mL)	13.9 (≈ 6.26 µg/mL)
CC1=NN(c2nc3ccc(Cl)cc3s2)C(=O)/C1=N/Nc1ccccc1C(=O)O	121 (≈ 50.1 µg/mL)	484 (≈ 200 µg/mL)	484 (≈ 200 µg/mL)	242 (≈ 100 µg/mL)
Cc1nn(-c2nc3ccc(Cl)cc3s2)c(C)c1/N=N/c1ccc(Cl)cc1	249 (≈ 100 µg/mL)	31.2 (≈ 12.5 µg/mL)	125 (≈ 50.2 µg/mL)	15.6 (≈ 6.27 µg/mL)
COc1ccc(N/N=C2/C(=O)N(c3nc4ccc(Cl)cc4s3)N=C2C)cc1	251 (≈ 100 µg/mL)	501 (≈ 200 µg/mL)	251 (≈ 100 µg/mL)	125 (≈ 50.1 µg/mL)
NNc1nc2ccc(Cl)cc2s1	501 (≈ 100 µg/mL)	1000 (≈ 200 µg/mL)	501 (≈ 100 µg/mL)	250 (≈ 50 µg/mL)
CC1=NN(c2nc3ccc(Cl)cc3s2)C(=O)/C1=N/Nc1ccc(F)cc1	64.6 (≈ 25 µg/mL)	129 (≈ 50.1 µg/mL)	129 (≈ 50.1 µg/mL)	32.3 (≈ 12.5 µg/mL)
COc1ccc(/N=N/c2c(C)nn(-c3nc4ccc(Cl)cc4s3)c2C)cc1	63 (≈ 25.1 µg/mL)	504 (≈ 200 µg/mL)	252 (≈ 100 µg/mL)	252 (≈ 100 µg/mL)
Cc1nn(-c2nc3ccc(Cl)cc3s2)c(C)c1/N=N/c1ccccc1C(=O)O	243 (≈ 100 µg/mL)	122 (≈ 50.1 µg/mL)	487 (≈ 200 µg/mL)	122 (≈ 50.1 µg/mL)
CC1=NN(c2nc3ccc(Cl)cc3s2)C(=O)/C1=N/Nc1ccc(Cl)cc1	124 (≈ 50.1 µg/mL)	124 (≈ 50.1 µg/mL)	62 (≈ 25.1 µg/mL)	31 (≈ 12.5 µg/mL)
Cc1nn(-c2nc3ccc(Cl)cc3s2)c(C)c1/N=N/c1ccc(C(=O)O)cc1	243 (≈ 100 µg/mL)	243 (≈ 100 µg/mL)	243 (≈ 100 µg/mL)	122 (≈ 50.1 µg/mL)
